Reference: patent publication US20240368145A1, “METHODS FOR TREATING CANCER” (IMMUNIC AG, priority 2021, published 2024)

Experiments:
AR-V7 mRNA = assay: Androgen receptor RNA level expression (qRT-PCR) in 22Rv1: AR-V7; assay type: cell-based; settings: 22Rv1, 1 μM, 48 h; for mrna remaining at 1 µM: Homo sapiens
Description: (§1) The prostate cancer cell line 22Rv1 was treated for 48 h with 1 μM Example compound 1, 1/1, 1/2, 2/1, 2/2, 2/3, 2/4, 2/5, 2/6, 2/7, 2/8, 2/9 and 2/10 and the reference compounds SR2211 and XY018 (Nat. Med. 2016; 22:488). RNA was extracted using the RNA isolation kit XS (Macherey-Nagel) and following the manufacture's manual. RNA quantity was measured with the Nanodrop before reverse transcription using Superscript II (Invitrogen #100004925). For the quantitative real-time PCR with SYBR-Green (Qiagen #204074), the following primers were used: AR forward-ACATCAAGGAACTCGATCGTATCATTGC and reverse-TTGGGCACTTGCACAGAGAT, AR-V7: forward-CCATCTTGTCGTCTTCGGAAATGTTATGAAGC and reverse-TTTGAATGAGGCAAGTCAGCCTTTCTT. The qRT-PCR proceeded as follows: denaturation for 5 min 95° C.; 40 cycles of “20 sec at 95° C. and 15 sec at 60° C.” and at the end of the last cycle, the melting temperature of the products was determined by gradually increasing it from 60° C. to 99° C. CT values from all samples were normalized to two different reference (housekeeping) genes using the mean CT value of the GAPDH and YWHAZ (reference genes). Next the values are normalized to the untreated control (vehicle/DMSO).

AML cell line THP-1 = assay: CellTiter-Blue proliferation assay, THP-1; assay type: cell-based; settings: Homo sapiens, geometric mean relative IC50, 72 hours, read-out: IC50 range for cell line THP-1
Description: (§2) Aim of this study was to evaluate compounds of Example 1, 1/1, 2/2, 2/5 and 2/6 in a proliferation assays. The 5 test compounds were tested in a CellTiter-Blue® based proliferation assay in three AML cell lines (HL-60, THP-1 and MOLM-13). The compounds were tested at 10 concentrations in half-log increments (highest concentration 30 μM or 100 μM) in duplicates. The incubation period with the applied compounds was fixed to 72 hours.

NKX3.1 mRNA = assay: Expression of AR target genes (qRT-PCR) in 22Rv1: NKX3.1; assay type: cell-based; settings: Homo sapiens; 22Rv1, 1 μM, 48h; relative to vehicle control (DMSO)
Description: (§3) The prostate cancer cell line 22Rv1 was treated for 48h with 1 μM Example compound 1, 1/1, 2/1, 2/2, 2/3, 2/4, 2/5, 2/6, 2/7, 2/8, 2/9 and 2/10 and reference compounds SR2211 and XY018. RNA was extracted using the RNA isolation kit XS (Macherey-Nagel) and following the manufacture's manual. RNA quantity was measured with the Nanodrop before reverse transcription using Superscript II (Invitrogen #100004925). For the quantitative real-time PCR with SYBR-Green (Qiagen #204074), the following primers were used:
(§4) qRT-PCR was performed using SYBR-Green (Qiagen #204074) reagents in a PCR cycler (Gorbett Research) Rotor Gene RG3000 with the following program: denaturation for 5′ at 95° C.; 40 cycles of 20″ at 95° C. and 15″ at 60° C.″ and at the end of the last cycle, the melting temperature of the products was determined by gradually increasing from 60° C. to 99° C. CT values from all samples were normalized to reference (housekeeping) genes using the mean CT value of the GAPDH and YWHAZ (reference genes). Next the values are put relative to the untreated control (vehicle/DMSO).

IL-17A = assay: Cytokine assay, human PBMC stimulated with PHA: IL-17A; assay type: cell-based; settings: PHA-activated, 48 hours, read-out: IL-17A inhibition (IC50 range)
Description: (§5) Peripheral blood mononuclear cells (PBMC) from healthy human donors were purified using Accuspin™ System-Histopaque-1077 (Sigma) according to the protocol recommended by the manufacturer. Purified PBMC were then washed twice with phosphate-buffered saline (PBS) and resuspended in RPMI1640 culture medium supplemented with 10% dialyzed heat inactivated fetal calf serum, 1.5 mM L-glutamine, 100 U penicillin/mL and […] streptomycin/mL (all from PAN Biotech, Aidenbach, Germany). For stimulation, PBMC were seeded at 1×10^5 cells/well, activated with 2 gg/mL phytohaemagglutinin (PHA, Sigma) and incubated with the test compounds for 48 hours. IL-17A, IL-17F and INFγ were then determined in the culture supernatant using a Luminex BioPlex system, following the manufacturer's instructions (BioRad, Munich, Germany). To determine the IC50, compounds were titrated semilogarithmically.
(§6) Cytokines were determined in the aforementioned culture supernatant using the following methods: IL-17A was measured using the human homodimer IL-17A ELISA Ready Set Go Kit from cBioscience (Frankfurt, Germany); IL-17F using the human IL-17F ELI-Pair from Holzel Diagnostica GmbH (K51n, Germany); and IFNγ using the OptEIA human IFN-g ELISA from BD Bioscience (Heidelberg, Germany), all following the manufacturer's instructions.

IL-17F = assay: Cytokine assay, human PBMC stimulated with PHA: IL-17F; assay type: cell-based; settings: PHA-activated, 48 hours, read-out: IL-17F inhibition (IC50 range)
Description: as §5, §6

IFNγ = assay: Cytokine assay, human PBMC stimulated with PHA: IFNγ; assay type: cell-based; settings: PHA-activated, 48 hours, read-out: IFNγ inhibition (IC50 range)
Description: as §5, §6

AML cell line MOLM-13 = assay: CellTiter-Blue proliferation assay, MOLM-13; assay type: cell-based; settings: Homo sapiens, geometric mean relative IC50, 72 hours, read-out: IC50 range for cell line MOLM-13
Description: as §2

[1] = system: full length AR (AR-FL) mRNA; assay: Androgen receptor RNA level expression (qRT-PCR) in 22Rv1: AR-FL; assay type: cell-based; settings: 22Rv1, 1 μM, 48 h; for mrna remaining at 1 µM: Homo sapiens; for mrna remaining at 1 µM / AR-FL mRNA expression: normalized to untreated control (vehicle/DMSO)
Description: as §1

KLK2 mRNA = assay: Expression of AR target genes (qRT-PCR) in 22Rv1: KLK2; assay type: cell-based; settings: 22Rv1, 1 μM; for KLK2 mRNA level expression: 48 h; for mrna remaining at 1 µM: Homo sapiens; for mrna remaining at 1 µM / KLK2 mRNA expression: 48h, relative to vehicle control (DMSO)
Description: as §3, §4

FKBP5 mRNA = assay: Expression of AR target genes (qRT-PCR) in 22Rv1: FKBP5; assay type: cell-based; settings: Homo sapiens; 22Rv1, 1 μM, 48h; relative to vehicle control (DMSO)
Description: as §3, §4

AML cell line HL-60 = assay: CellTiter-Blue proliferation assay, HL-60; assay type: cell-based; settings: Homo sapiens, geometric mean relative IC50, 72 hours, read-out: IC50 range for cell line HL-60
Description: as §2

CAMKK2 mRNA = assay: Expression of AR target genes (qRT-PCR) in 22Rv1: CAMKK2; assay type: cell-based; settings: 22Rv1, 1 μM, 48h; relative to vehicle control (DMSO)
Description: as §3, §4

AR-FL protein = assay: Androgen receptor protein expression (western blot) in 22Rv1: AR-FL; assay type: cell-based, human; settings: 22Rv1, 6 μM, 48 h; western blot quantification
Description: (§7) After 48 h, cell were lysed using cell extraction buffer (Life Technologies #FNN0011) for western blot. […] The membrane is then incubation for 1 hour in blocking buffer (5% milk in 20 mM Tris, 150 mM NaCl, pH 7.5, 0.05% Tween 20 [TBS-T]). After this incubation, the primary antibody is added and incubated overnight at 4° C. After washing, the membrane was incubated with the secondary antibody for 1 h. Visualization of the bands was performed using the femto maximum sensitivity substrate reagent and the luminescence signal recorded with the Fusion FX7 (Vilber). For protein quantification, InageJ was used.

AR-V7 protein = assay: Androgen receptor protein expression (western blot) in 22Rv1: AR-V7; assay type: cell-based, human; settings: 22Rv1, 6 μM, 48 h; western blot quantification
Description: as §7

[2] = system: prostate cancer cell line VCaP; assay: Oncolead sulforhodamin B growth inhibition, VCaP; assay type: cell-based; settings: Homo sapiens, VCaP; sulforhodamin B assay; 72 and 120 h treatment; read-out: GI50 range VCAP
Description: (§8) Cell growth was assessed by measuring protein content using sulforhodamin B. Growth inhibition was calculated by (TCMD−T0)/TNCT72h−T0)*100% with TCMD is the tumor growth at 72 h with the respective compound concentration. To is the protein content of the cell line before treatment and TNCT72h is the tumor growth of the DMSO control.

[3] = system: prostate cancer cell line PC3; assay: Oncolead sulforhodamin B growth inhibition, PC3; assay type: cell-based; settings: sulforhodamin B assay; 72 and 120 h treatment; read-out: GI50 range PC3
Description: as §8

[4] = system: prostate cancer cell line 22RV1; assay: Oncolead sulforhodamin B growth inhibition, 22RV1; assay type: cell-based; settings: Homo sapiens, sulforhodamin B assay, 72 and 120 h treatment, read-out: GI50 range 22RV1
Description: as §8

[5] = system: prostate cancer cell line LNCAP; assay: Oncolead sulforhodamin B growth inhibition, LNCAP; assay type: cell-based; settings: Homo sapiens, sulforhodamin B assay, 72 and 120 h treatment, read-out: GI50 range LNCAP
Description: as §8

[6] = system: prostate cancer cell line DU145; assay: Oncolead sulforhodamin B growth inhibition, DU145; assay type: cell-based; settings: Homo sapiens, DU-145; sulforhodamin B assay; 72 and 120 h treatment; read-out: GI50 range DU145
Description: as §8

[7] = normalized to untreated control (vehicle/DMSO)

Row | SMILES | AR-V7 mRNA expression (AR-V7 mRNA) | mrna remaining at 1 µM (AR-V7 mRNA; [7]) [%] | IC50 (AML cell line THP-1) [µM] | mrna remaining at 1 µM (NKX3.1 mRNA) [%] | IC50 (IL-17A) [µM] | IC50 (IL-17F) [µM] | IC50 (IFNγ) [µM] | IC50 (AML cell line MOLM-13) [µM] | full length AR (AR-FL) mRNA expression [1] | mrna remaining at 1 µM [1] [%] | KLK2 mRNA level expression (KLK2 mRNA) | mrna remaining at 1 µM (KLK2 mRNA) [%] | mrna remaining at 1 µM (FKBP5 mRNA) [%] | IC50 (AML cell line HL-60) [µM] | further results
1 | C[C@]1(O)C[C@@H](n2ncc(-c3onc(-c4c(F)cccc4Cl)c3-c3ncccn3)c2C(F)(F)F)C1 [2/5] | strong reduction | 23.9 | < 0.01 | 30.7 | < 0.025 | < 0.025 | < 0.025 | < 0.01 | strong reduction | 45.4 | strong inhibition | 37.7 | 27.1 | < 0.01 | 
2 | C[C@]1(O)C[C@@H](n2ncc(-c3onc(-c4ccccc4Cl)c3-c3ncccn3)c2C(F)(F)F)C1 [2/6] | strong reduction | 30.4 | 0.01 to 0.1 | 44 | < 0.025 | < 0.025 | < 0.025 | < 0.01 | strong reduction | 54.9 | strong inhibition | 42.8 | 33.8 | < 0.01 | 
3 | COC(=O)c1c(-c2c(F)cccc2Cl)noc1-c1cnn([C@H]2C[C@@](C)(O)C2)c1C(F)(F)F [Example 2/2] | strong reduction | 19.9 | 0.01 to 0.1 | 25.5 | < 0.025 | < 0.025 | < 0.025 | < 0.01 | strong reduction | 38 | strong inhibition | 34.1 | 24.6 | < 0.01 | 
4 | OC(c1ccc(-c2ccc(CN3CCN(Cc4ccncc4)CC3)cc2)c(F)c1)(C(F)(F)F)C(F)(F)F [SR2211, reference compound] |  |  |  |  |  |  |  |  |  |  |  |  |  |  | AR-V7 mRNA expression (AR-V7 mRNA; [7]): 1.059; CAMKK2 mRNA expression (CAMKK2 mRNA): 1.009; AR-FL protein level (AR-FL protein): 0.675; AR-FL mRNA expression [1]: 1.058; AR-V7 protein level (AR-V7 protein): 0.728; KLK2 mRNA expression (KLK2 mRNA): 1.284
5 | O=C(Cc1ccccc1[N+](=O)[O-])Nc1ccc(-c2ccc(C(O)(C(F)(F)F)C(F)(F)F)cc2F)cc1 [XY018, reference compound] |  |  |  |  |  |  |  |  |  |  |  |  |  |  | AR-V7 mRNA expression (AR-V7 mRNA; [7]): 1.237; CAMKK2 mRNA expression (CAMKK2 mRNA): 0.959; AR-FL protein level (AR-FL protein): 0.588; AR-FL mRNA expression [1]: 1.111; AR-V7 protein level (AR-V7 protein): 0.653; KLK2 mRNA expression (KLK2 mRNA): 0.831
6 | CNC(=O)c1ccc(N2C(=S)N(c3ccc(C#N)c(C(F)(F)F)c3)C(=O)C2(C)C)cc1F [enzalutamide, reference compound] |  |  |  |  |  |  |  |  |  |  |  |  |  |  | GI50 [2]: 0.1 to 5 µM; GI50 [3]: ≥ 5 µM; GI50 [4]: ≥ 5 µM; GI50 [5]: 0.1 to 5 µM; GI50 [6]: ≥ 5 µM
7 | CC(=O)O[C@H]1C(=O)[C@@]2(C)[C@H]([C@H](OC(=O)c3ccccc3)[C@]3(O)C[C@H](OC(=O)[C@H](O)[C@@H](NC(=O)c4ccccc4)c4ccccc4)C(C)=C1C3(C)C)[C@]1(OC(C)=O)CO[C@@H]1C[C@@H]2O [paclitaxel, reference compound] |  |  |  |  |  |  |  |  |  |  |  |  |  |  | GI50 [2]: < 0.025 µM; GI50 [3]: < 0.025 µM; GI50 [4]: < 0.025 µM; GI50 [5]: < 0.025 µM; GI50 [6]: < 0.025 µM
